Experimental data published in the supplement of paper PMC11208160.
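Further: IS621 recombinase and bridge RNA in Escherichia coli cells.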

Experiment: recombinant barcode read abundance after kanamycin selection (control-corrected) (log10(CPM+1)); higher = more efficient recombination; sequences stand for … in AGTGCAGAGAAAATCGGCCAGTTTTCTCTGCCTGCAGTCCGCATGCCGT…AGATTTATGCAGCGGACTGCCTTTCTCCCAAAGTGATAAACCGGACAGTATCATGGACCGGTTTTCCCGGTAATCCGTATTTGCAAGGTTGGTTTCACT; site = the 11-nt target
Outline: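 Each value is log10(CPM+1). It describes recombination efficiency, taken as averaged, control-corrected counts per million of barcodes at recombinant junctions. The pooled E. coli library paired targets with IS621 bridge RNA target-binding loops, was co-electroporated with a donor plasmid, and was plated twice on chloramphenicol/ampicillin LB agar (control) and twice on chloramphenicol/ampicillin/kanamycin containing 0.1 mM IPTG.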
For “CGGCGTACTTGGGTTCTAACCTGTTGCCT (site CGCCGTACTAG)”, the “recombinant barcode read abundance (log10)” value was 0.103.
For “CGGCGTACTTGGGTTCTAACCTGTTGCCT (site CGGCGTACTAG)”, the “recombinant barcode read abundance (log10)” value was 0.959.
With “CGGCGTACTTGGGTTCTAACCTGTTGCCT (site CGTCGTACTAG)” the “recombinant barcode read abundance (log10)” value was 0.069.
With “CGGCGTCCTTGGGTTCTAACCTGTTGCCT (site CGGCGTCCTAG)” the “recombinant barcode read abundance (log10)” value was 1.24.
In the case of “CGGCGTCCTTGGGTTCTAACCTGTTGCCT (site CGGCGTCCTCG)”, the “recombinant barcode read abundance (log10)” value is reported as 0.0739.
For “CGGCGTCCTTGGGTTCTAACCTGTTGCTA (site CGGAGTCCTTA)”, the “recombinant barcode read abundance (log10)” value was 0.0265.
In the case of “CGGCGTCCTTGGGTTCTAACCTGTTGCTA (site CGGCGTCCTTA)”, the “recombinant barcode read abundance (log10)” value is reported as 0.452.
In the case of “CGGCGTCCTTGGGTTCTAACCTGTTGCTA (site CGGGGTCCTTA)”, the “recombinant barcode read abundance (log10)” value is reported as 0.113.
In the case of “CGGCGTCCTTGGGTTCTAACCTGTTGCTA (site CGGTGTCCTTA)”, the “recombinant barcode read abundance (log10)” value is reported as 0.42.
In the case of “CGGCTACCTTGGGTTCTAACCTGTTGCCT (site CAGCTACCTAG)”, the “recombinant barcode read abundance (log10)” value is reported as 0.194.
In the case of “CGGCTACCTTGGGTTCTAACCTGTTGCCT (site CCGCTACCTAG)”, the “recombinant barcode read abundance (log10)” value is reported as 0.13.
In the case of “CGGCTACCTTGGGTTCTAACCTGTTGCCT (site CGGCTACCTAG)”, the “recombinant barcode read abundance (log10)” value is reported as 1.96.
For “CGGCTACCTTGGGTTCTAACCTGTTGCCT (site CTGCTACCTAG)”, the “recombinant barcode read abundance (log10)” value was 0.429.
For “CGGCTCACTTGGGTTCTAACCTGTTGCTA (site CGGCACACTAA)”, the “recombinant barcode read abundance (log10)” value was 0.0598.
In the case of “CGGCTCACTTGGGTTCTAACCTGTTGCTA (site CGGCTCACTTA)”, the “recombinant barcode read abundance (log10)” value is reported as 2.31.
For “CGGCTGACTTGGGTTCTAACCTGTTGCCT (site CGGCTCACTAG)”, the “recombinant barcode read abundance (log10)” value was 0.446.
For “CGGCTGACTTGGGTTCTAACCTGTTGCCT (site CGGCTGACTAG)”, the “recombinant barcode read abundance (log10)” value was 1.46.
With “CGGGCCTCTTGGGTTCTAACCTGTTGCTA (site CGGGCCTCTAA)” the “recombinant barcode read abundance (log10)” value was 0.185.
With “CGGGCCTCTTGGGTTCTAACCTGTTGCTA (site CGGGCCTCTCA)” the “recombinant barcode read abundance (log10)” value was 0.
For “CGGGCCTCTTGGGTTCTAACCTGTTGCTA (site CGGGCCTCTGA)”, the “recombinant barcode read abundance (log10)” value was 1.27.
In the case of “CGGGCCTCTTGGGTTCTAACCTGTTGCTA (site CGGGCCTCTTA)”, the “recombinant barcode read abundance (log10)” value is reported as 2.38.
In the case of “CGGGCCTCTTGGGTTCTAACCTGTTGCTT (site CGGGCCTCTAA)”, the “recombinant barcode read abundance (log10)” value is reported as 2.03.
For “CGGGCCTCTTGGGTTCTAACCTGTTGCTT (site CGGGCCTCTCA)”, the “recombinant barcode read abundance (log10)” value was 0.148.
With “CGGGCCTCTTGGGTTCTAACCTGTTGCTT (site CGGGCCTCTGA)” the “recombinant barcode read abundance (log10)” value was 0.469.
With “CGGGCCTCTTGGGTTCTAACCTGTTGCTT (site CGGGCCTCTTA)” the “recombinant barcode read abundance (log10)” value was 0.336.
In the case of “CGGGCGCCTTGGGTTCTAACCTGTTGCGG (site CGGCCGACTCC)”, the “recombinant barcode read abundance (log10)” value is reported as 0.0157.
With “CGGGCGCCTTGGGTTCTAACCTGTTGCGG (site CGGGCGCCTCC)” the “recombinant barcode read abundance (log10)” value was 2.14.
With “CGGGTGCCTTGGGTTCTAACCTGTTGCCT (site CAGGTGCCTAG)” the “recombinant barcode read abundance (log10)” value was 0.379.
For “CGGGTGCCTTGGGTTCTAACCTGTTGCCT (site CCGGTGCCTAG)”, the “recombinant barcode read abundance (log10)” value was 0.717.
In the case of “CGGGTGCCTTGGGTTCTAACCTGTTGCCT (site CGGGTGCCTAG)”, the “recombinant barcode read abundance (log10)” value is reported as 1.66.
For “CGGGTGCCTTGGGTTCTAACCTGTTGCCT (site CTGGTGCCTAG)”, the “recombinant barcode read abundance (log10)” value was 0.0879.
In the case of “CGGTAACCTTGGGTTCTAACCTGTTGCCT (site AGGTAACCTAG)”, the “recombinant barcode read abundance (log10)” value is reported as 0.429.
In the case of “CGGTAACCTTGGGTTCTAACCTGTTGCCT (site CGGTAACCTAG)”, the “recombinant barcode read abundance (log10)” value is reported as 0.761.
With “CGGTAACCTTGGGTTCTAACCTGTTGCCT (site GGGTAACCTAG)” the “recombinant barcode read abundance (log10)” value was 0.185.
For “CGGTAACCTTGGGTTCTAACCTGTTGCCT (site TGGTAACCTAG)”, the “recombinant barcode read abundance (log10)” value was 0.753.
With “CGGTAGTCTTGGGTTCTAACCTGTTGCTT (site CGGTAGTCTAA)” the “recombinant barcode read abundance (log10)” value was 1.41.
With “CGGTAGTCTTGGGTTCTAACCTGTTGCTT (site CGGTAGTCTCA)” the “recombinant barcode read abundance (log10)” value was 0.0659.
For “CGGTGTCCTTGGGTTCTAACCTGTTGCTA (site CGGAGTCCTTA)”, the “recombinant barcode read abundance (log10)” value was 0.0633.
With “CGGTGTCCTTGGGTTCTAACCTGTTGCTA (site CGGCGTCCTTA)” the “recombinant barcode read abundance (log10)” value was 0.586.
With “CGGTGTCCTTGGGTTCTAACCTGTTGCTA (site CGGGGTCCTTA)” the “recombinant barcode read abundance (log10)” value was 0.225.
In the case of “CGGTGTCCTTGGGTTCTAACCTGTTGCTA (site CGGTGTCCTTA)”, the “recombinant barcode read abundance (log10)” value is reported as 1.33.
With “CGGTTTCCTTGGGTTCTAACCTGTTGCCT (site CGGTTTCCTAG)” the “recombinant barcode read abundance (log10)” value was 0.848.
In the case of “CGGTTTCCTTGGGTTCTAACCTGTTGCCT (site CTATTTCCTAG)”, the “recombinant barcode read abundance (log10)” value is reported as 0.0218.
In the case of “CGTAAGTCTTGGGTTCTAACCTGTTGCCT (site CGTAAGTCTAG)”, the “recombinant barcode read abundance (log10)” value is reported as 1.11.
For “CGTAAGTCTTGGGTTCTAACCTGTTGCCT (site TATAAGTCTAG)”, the “recombinant barcode read abundance (log10)” value was 0.0991.
For “CGTACGACTTGGGTTCTAACCTGTTGCAT (site CGTACGACTAT)”, the “recombinant barcode read abundance (log10)” value was 0.215.
In the case of “CGTACGACTTGGGTTCTAACCTGTTGCAT (site CGTCCGACTAT)”, the “recombinant barcode read abundance (log10)” value is reported as 0.451.
In the case of “CGTACGACTTGGGTTCTAACCTGTTGCAT (site CGTGCGACTAT)”, the “recombinant barcode read abundance (log10)” value is reported as 0.236.
In the case of “CGTACGACTTGGGTTCTAACCTGTTGCAT (site CGTTCGACTAT)”, the “recombinant barcode read abundance (log10)” value is reported as 0.0932.
With “CGTAGGTCTTGGGTTCTAACCTGTTGCCT (site CGTAGGTCTAG)” the “recombinant barcode read abundance (log10)” value was 0.101.
In the case of “CGTAGGTCTTGGGTTCTAACCTGTTGCCT (site CTTAGCTCTAG)”, the “recombinant barcode read abundance (log10)” value is reported as 0.0284.
With “CGTCCTCCTTGGGTTCTAACCTGTTGCAT (site CCGCCTCCTAT)” the “recombinant barcode read abundance (log10)” value was 0.00736.
With “CGTCCTCCTTGGGTTCTAACCTGTTGCAT (site CGTCCTCCTAT)” the “recombinant barcode read abundance (log10)” value was 0.089.
In the case of “CGTCCTGCTTGGGTTCTAACCTGTTGCTT (site CGTCCTGCTAA)”, the “recombinant barcode read abundance (log10)” value is reported as 0.527.
In the case of “CGTCCTGCTTGGGTTCTAACCTGTTGCTT (site TAGGGGACTTT)”, the “recombinant barcode read abundance (log10)” value is reported as 0.0676.
In the case of “CGTCGCACTTGGGTTCTAACCTGTTGCCT (site CATCGCACTAG)”, the “recombinant barcode read abundance (log10)” value is reported as 0.234.
With “CGTCGCACTTGGGTTCTAACCTGTTGCCT (site CCTCGCACTAG)” the “recombinant barcode read abundance (log10)” value was 0.029.
For “CGTCGCACTTGGGTTCTAACCTGTTGCCT (site CGTCGCACTAG)”, the “recombinant barcode read abundance (log10)” value was 0.0318.
For “CGTCGCACTTGGGTTCTAACCTGTTGCCT (site CTTCGCACTAG)”, the “recombinant barcode read abundance (log10)” value was 0.164.
With “CGTCGTACTTGGGTTCTAACCTGTTGCCT (site CGACGTACTAG)” the “recombinant barcode read abundance (log10)” value was 0.504.
For “CGTCGTACTTGGGTTCTAACCTGTTGCCT (site CGCCGTACTAG)”, the “recombinant barcode read abundance (log10)” value was 0.0657.
With “CGTCGTACTTGGGTTCTAACCTGTTGCCT (site CGGCGTACTAG)” the “recombinant barcode read abundance (log10)” value was 0.0235.
For “CGTCGTACTTGGGTTCTAACCTGTTGCCT (site CGTCGTACTAG)”, the “recombinant barcode read abundance (log10)” value was 0.136.
With “CGTCTCCCTTGGGTTCTAACCTGTTGCCT (site CCTCTGCCTAG)” the “recombinant barcode read abundance (log10)” value was 0.0171.
With “CGTCTCCCTTGGGTTCTAACCTGTTGCCT (site CGTCTCCCTAG)” the “recombinant barcode read abundance (log10)” value was 0.451.
For “CGTGTAACTTGGGTTCTAACCTGTTGCCT (site CGTATATCTAG)”, the “recombinant barcode read abundance (log10)” value was 0.13.
With “CGTGTAACTTGGGTTCTAACCTGTTGCCT (site CGTGTAACTAG)” the “recombinant barcode read abundance (log10)” value was 0.332.
In the case of “CGTTCGACTTGGGTTCTAACCTGTTGCAT (site CGTACGACTAT)”, the “recombinant barcode read abundance (log10)” value is reported as 0.131.
In the case of “CGTTCGACTTGGGTTCTAACCTGTTGCAT (site CGTCCGACTAT)”, the “recombinant barcode read abundance (log10)” value is reported as 0.0713.
With “CGTTCGACTTGGGTTCTAACCTGTTGCAT (site CGTGCGACTAT)” the “recombinant barcode read abundance (log10)” value was 0.174.
With “CGTTCGACTTGGGTTCTAACCTGTTGCAT (site CGTTCGACTAT)” the “recombinant barcode read abundance (log10)” value was 0.133.
With “CGTTCGACTTGGGTTCTAACCTGTTGCCT (site CGTTCAACTAG)” the “recombinant barcode read abundance (log10)” value was 0.0692.
In the case of “CGTTCGACTTGGGTTCTAACCTGTTGCCT (site CGTTCCACTAG)”, the “recombinant barcode read abundance (log10)” value is reported as 0.
For “CGTTCGACTTGGGTTCTAACCTGTTGCCT (site CGTTCGACTAG)”, the “recombinant barcode read abundance (log10)” value was 0.0748.
With “CGTTCGACTTGGGTTCTAACCTGTTGCCT (site CGTTCTACTAG)” the “recombinant barcode read abundance (log10)” value was 0.0286.
In the case of “CGTTCTCCTTGGGTTCTAACCTGTTGCCT (site AGTTCTCCTAG)”, the “recombinant barcode read abundance (log10)” value is reported as 0.0567.
In the case of “CGTTCTCCTTGGGTTCTAACCTGTTGCCT (site CGTTCTCCTAG)”, the “recombinant barcode read abundance (log10)” value is reported as 0.0201.
With “CGTTCTCCTTGGGTTCTAACCTGTTGCCT (site GGTTCTCCTAG)” the “recombinant barcode read abundance (log10)” value was 0.0547.
With “CGTTCTCCTTGGGTTCTAACCTGTTGCCT (site TGTTCTCCTAG)” the “recombinant barcode read abundance (log10)” value was 0.121.
For “CGTTGCCCTTGGGTTCTAACCTGTTGCCT (site CATTGCCCTAG)”, the “recombinant barcode read abundance (log10)” value was 0.19.
With “CGTTGCCCTTGGGTTCTAACCTGTTGCCT (site CCTTGCCCTAG)” the “recombinant barcode read abundance (log10)” value was 0.0881.
For “CGTTGCCCTTGGGTTCTAACCTGTTGCCT (site CGTTGCCCTAG)”, the “recombinant barcode read abundance (log10)” value was 0.166.
For “CGTTGCCCTTGGGTTCTAACCTGTTGCCT (site CTTTGCCCTAG)”, the “recombinant barcode read abundance (log10)” value was 0.468.
In the case of “CGTTGGTCTTGGGTTCTAACCTGTTGCGA (site CGTTGGTCTTC)”, the “recombinant barcode read abundance (log10)” value is reported as 0.759.
For “CGTTGGTCTTGGGTTCTAACCTGTTGCGA (site TTGCATCCTCT)”, the “recombinant barcode read abundance (log10)” value was 0.0731.
In the case of “CGTTTCCCTTGGGTTCTAACCTGTTGCAG (site CGTTTCCCTAC)”, the “recombinant barcode read abundance (log10)” value is reported as 0.152.
